# Assay results as given in US20080039500A1, “Cerebral Infarction Suppressant” (priority 2004, published 2008).
# Tests used:
# neuronal death = details: cited from earlier work
# cerebral infarction [1] = test: Example 1: concomitant use of histidine and H3-receptor blocker, size of infarction after 2 h middle cerebral artery occlusion (TTC staining); format: in vivo, rat
# Text: These rats were anesthetized with a gas mixture of 2% halothane, 49% oxygen and 49% laughing gas, and kept under spontaneous breathing. Subsequently, a median incision was made in the neck of the rat placed on its back, and the right common carotid artery was exposed. […] The tip of the nylon thread was placed 18 mm from the bifurcation. After suture of the incision of the skin, the rats were allowed to recover from anesthesia. During surgery, an electronic thermometer was inserted into the temporal muscle, and the body temperature was maintained at 37.0±0.1° C. with a lamp. […] Five minutes before reperfusion of blood flow, the rats were anesthetized again. […] Histidine was first dissolved in physiological saline adjusted to pH 4.0 with hydrochloric acid, and then the pH was resumed to 6.0 with sodium hydroxide. Further, 5 mg/kg of thioperamide was intraperitoneally injected to each thioperamide administration group. After recovery from anesthesia, the rats were allowed to access food and water freely. Twenty-four hours after recovery of blood flow, sodium pentobarbital was intraperitoneally administered to the rats for anesthesia. Subsequently, the brain was perfused with physiological saline, and the rat was decapitated. The brain was quickly dissected, and rinsed in physiological saline. The brain was sliced coronally between the optic chiasm and the caucal edge of the mammillary body at a thickness of 2 mm. […] As a result, triphenyltetrazolium chloride was reduced due to the action of dehydrogenase present in viable cells, and the tissue was stained in dark red. On the other hand, the dead tissue in the infarcted area was not stained. These brain slices were preserved in phosphate-buffered formalin overnight. Then, an investigator who was unaware of histidine administration measured the size of infarction using computer-aided planimetry.
# [2] = system: pyramidal neurons in the hippocampal CA-1 region; details: administration prior to transient forebrain ischemia, rat; cited from earlier work
# cerebral infarction [3] = test: Example 2: concomitant use of histidine and HMT inhibitor, size of infarction after middle cerebral artery occlusion
# Protocol: Twenty-five male Wistar rats weighing about 300 g were divided into 4 groups consisting of histidine 1000 mg/kg administration group, histidine 200 mg/kg+metoprine 10 mg/kg administration group, histidine 500 mg/kg+metoprine 10 mg/kg administration group, and histidine 1000 mg/kg+metoprine 10 mg/kg administration group.
# The root of the right middle cerebral artery of these rats was occluded and blood flow was recovered as shown in the Example 1. Then, 200 mg/kg, 500 mg/kg or 1000 mg/kg of histidine was intraperitoneally administered to the rats, and 10 mg/kg of metoprine was further administered to the metoprine administration groups, as shown in the Example 1.
# The samples were prepared by treating each rat as shown in the Example 1 and the size of infarction was measured. The obtained size of cerebral infarction was subjected to analysis of variance and the Bonferroni test.
# liver function = details: patients who received the agent; cited from earlier work
# [4] = histidine 200 mg/kg i.p. alone, single dose after reperfusion, 24 h
# [5] = histidine 500 mg/kg i.p. alone after reperfusion, 24 h
# [6] = histidine 1000 mg/kg i.p. alone after reperfusion, 24 h
# [7] = Example 2, histidine 1000 mg/kg i.p. alone after reperfusion, 24 h
smiles,measurement,setting,value
COc1ccc(CN(CCN(C)C)c2ccccn2)cc1 [mepyramine],alleviation of nerve cell death by histidine in presence of histamine receptor blocker,"neuronal death; co-administered with histidine, ranitidine used concomitantly with mepyramine",slightly suppressed
"N[C@@H](Cc1c[nH]cn1)C(=O)O [Histidine, histidine]","size of cerebral infarction, Striatum","cerebral infarction [1]; histidine 200 mg/kg i.p. alone, single dose after reperfusion (2 h MCA occlusion), 24 h after recovery of blood flow",35.3 ± 21.6 mm^3
same,"size of cerebral infarction, Cerebral cortex",cerebral infarction [1]; [4],106.3 ± 63.0 mm^3
same,"size of cerebral infarction, Total",cerebral infarction [1]; [4],141.6 ± 83.1 mm^3
same,"size of cerebral infarction, Cerebral cortex",cerebral infarction [1]; [5],86.0 ± 49.9 mm^3
same,"size of cerebral infarction, Striatum",cerebral infarction [1]; [5],30.5 ± 23.3 mm^3
same,"size of cerebral infarction, Total",cerebral infarction [1]; [5],116.5 ± 69.7 mm^3
same,"size of cerebral infarction, Cerebral cortex",cerebral infarction [1]; [6],114.2 ± 33.9 mm^3
same,"size of cerebral infarction, Striatum",cerebral infarction [1]; [6],47.8 ± 16.3 mm^3
same,"size of cerebral infarction, Total",cerebral infarction [1]; [6],162.0 ± 45.8 mm^3
same,suppressive effects on cerebral infarction,"cerebral infarction [1]; histidine alone in a single dose after ischemia (200, 500, 1000 mg/kg)",not found
same,programmed death of neurons after transient ischemia,[2],depressed
same,neuronal death 7 days after ischemia caused by apoptosis,"neuronal death; histidine 4 times: shortly, 6, 24 and 48 hours after 15 minutes of transient ischemia, rats",depressed
same,suppressive effects on cerebral infarction,"cerebral infarction [3]; 1000 mg/kg of histidine in a single dose after ischemia, without metoprine",not found
same,"size of cerebral infarction, Cerebral cortex",cerebral infarction [3]; [7],87.8 ± 42.5 mm^3
same,"size of cerebral infarction, Striatum",cerebral infarction [3]; [7],57.2 ± 20.2 mm^3
same,"size of cerebral infarction, Total",cerebral infarction [3]; [7],145.0 ± 59.2 mm^3
CC1=NN(c2ccccc2)C(=O)C1 [edaravone],patients with abnormal values in laboratory tests on the liver function,liver function,21.4%
